{"source": "patent US5126057A", "about": "“Disinfecting with N,N'-dihaloimidazolidin-4-ones” (Auburn Research Foundation, priority 1991, dated 1992)", "key": {"[1]": {"test": "Formation of N-halogenated imidazolidin-4-ones in situ (loss of free chlorine, DPD/FAS)", "assay_type": "physicochemical", "conditions": "for reaction with free chlorine: pH 7.0, 24°±1° C.", "procedure": "An aqueous solution containing 50.0 milligrams (3.52×10^-4 moles) of 2,2,5,5-tetramethylimidazolidin-4-one synthesized as in example 2 in 50.0 milliliters of 0.05 molar sodium phosphate buffer (pH 7.0) was prepared. The buffer solution had been made halogen demand-free by chlorination with 3 milligrams per liter total chlorine from sodium hypochlorite followed by exposure to direct sunlight for two days until no titratable chlorine remained. A halogen demand-free solution of free chlorine buffered to pH 7.0 was prepared by bubbling chlorine gas into a flask containing the demand-free buffered water. Then 19 milliliters of the solution containing 1.31 grams per liter of free chlorine (7.02×10^-4 moles of positive halogen) was added to the solution containing the 2,2,5,5-tetramethylimidazolidin-4-one at ambient temperature (24°±1° C.) while stirring.\nThe reaction rate for formation of 1,3-dichloro-2,2,5,5-tetramethylimidazolidin-4-one and/or 1-chloro-2,2,5,5-tetramethylimidazolidin-4-one in situ was then followed kinetically by observing the loss of free chlorine concentration from the reaction mixture as a function of time. The concentration of free chlorine was monitored by withdrawing aliquots from the mixture periodically and titrating them by the DPD/FAS (N,N-diethyl-p-phenylenediamine/ferrous ammonium sulfate) method as described in \"Standard Methods for the Examination of Water and Wastewater, 16th edition, American Public Health Association, Washington, D. C., 1985, pp. 306-309. The moles of free chlorine present in the reaction mixture declined from 7.02×10^-4 at the time of mixing to 4.45×10^-5 after only 48 seconds representing 94% reaction. Then further declination of free chlorine occurred to 3.63×10^-5 moles after 2.87 minutes, 3.48×10^-5 moles after 6.07 minutes, and 3.32×10^-5 moles after 114.6 minutes. Thus after 114.6 minutes 95% of the reaction had occurred. At this time 1.76×10^-5 additional moles of 2,2,5,5-tetramethylimidazolidin-4-one was added, and the concentration of free chlorine declined to zero by 140 minutes total elapsed time."}, "[2]": {"conditions": "cited from earlier work"}, "[3]": {"test": "Stability of unhalogenated 2,2,5,5-tetramethylimidazolidin-4-one in water exposed to direct sunlight", "assay_type": "physicochemical", "procedure": "A solution containing 142 milligrams (1.00×10^-3 moles) of 2,2,5,5-tetramethylimidazolidin-4-one (Compound 6) in 1.0 liter of demand-free water buffered to pH 7.0 was prepared. 100 milliliter samples (1.00×10^-4 moles of Compound 6) of this solution were placed in each of five 100 milliliter volumetric flasks. The flasks were sealed with ground glass stoppers and placed in direct sunlight on the roof of the chemistry building at Auburn University during the period Jul. 6, 1989 to Aug. 2, 1989. No effort was made to control the temperature in this experiment; it was typically 33° C. during this period. […]\nAfter allowing the reaction of Compound 6 with free chlorine to form a mixture of 1,3-dichloro-2,2,5,5-tetramethylimidazolidin-4-one (Compound 1) and 1-chloro-2,2,5,5-tetramethylimidazolidin-4-one (Compound 3) to proceed with stirring over a period of 1 hour, aliquots were analyzed for total and free chlorine using the DPD-FAS procedure mentioned in example 8. The combined chlorine concentration was assumed to be the difference between the determined total and free chlorine concentrations, and to represent the amounts of compounds 1 and 3 forming during the reaction."}}, "note": "Where two headings read alike, the source gives them in different places.", "data": [{"compound": "CC1(C)NC(=O)C(C)(C)N1", "note": "[2,2,5,5-tetramethylimidazolidin-4-one]", "values": [{"measurement": "reaction with free chlorine", "setting": "[1]; 48 seconds", "result": 94, "unit": "%"}, {"measurement": "reaction with free chlorine", "setting": "[1]; 114.6 minutes", "result": 95, "unit": "%"}, {"measurement": "time for in situ formation of halogenated imidazolidin-4-ones", "setting": "[1]; free chlorine added to pH 7.0 demand-free water", "result": "less than 1 minute"}]}, {"compound": "CC1(C)COC(=O)N1Cl", "note": "[3-chloro-4,4-dimethyl-2-oxazolidinone]", "values": [{"measurement": "hydrolysis equilibrium constant", "setting": "[2]; reported by Williams, Elder and Worley, 1988", "result": "2.3×10^-9"}]}, {"compound": "CC1(C)NC(=O)C(C)(C)N1", "note": "[Compound 6, 2,2,5,5-tetramethylimidazolidin-4-one]", "values": [{"measurement": "variation of combined chlorine concentration", "setting": "[3]; 4 weeks direct sunlight, DFW pH 7.0, typically 33° C., then reacted with free chlorine", "result": "≤ 6", "unit": "%"}, {"measurement": "time for which stable in direct sunlight", "setting": "[3]; DFW, pH 7.0, direct sunlight", "result": "at least 4 weeks"}]}, {"compound": "O=c1n(Cl)c(=O)n(Cl)c(=O)n1Cl", "note": "[trichloroisocyanuric acid]", "values": [{"measurement": "hydrolysis equilibrium constant", "setting": "[2]; reported by G. D. Nelson, Kirk-Othmer 1979", "result": "1.6×10^-4"}]}]}
